Columns and labels:
Assay in all cases: relative viability (nuclei count vs DMSO), 5 days (fraction); higher = more cells survive
[1] = compound: CNC(=O)c1cc(Oc2ccc(NC(=O)Nc3ccc(Cl)c(C(F)(F)F)c3)cc2)ccn1 [Sorafenib] + Cc1nc(NC(=O)N2CCC[C@H]2C(N)=O)sc1-c1ccnc(C(C)(C)C(F)(F)F)c1 [Alpelisib] (partner 2 µM)
Summary of the method: (§1)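 Cells from lung cancer lines were seeded into 1536-well plates and, one day later, dosed by pin tool. Treatments were either a single drug or a fixed dose of an anchor drug with five library-drug doses (not always all listed) in √10 steps. After 5 days, nuclei were stained in a one-step fixation (final 0.05% Triton X-100, 1% formaldehyde, 1 ug/ml Hoechst) and counted on 4× images, and relative viability is the treated-to-vehicle nuclei ratio, as the median of duplicate plates.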

[2] = compound: CNC(=O)c1cc(Oc2ccc(NC(=O)Nc3ccc(Cl)c(C(F)(F)F)c3)cc2)ccn1 [Sorafenib] + CC(=O)c1c(C)c2cnc(Nc3ccc(N4CCNCC4)cn3)nc2n(C2CCCC2)c1=O [Palbociclib] (partner 0.5 µM)
Summary of the method: as §1

[3] = compound: CNC(=O)c1cc(Oc2ccc(NC(=O)Nc3ccc(Cl)c(C(F)(F)F)c3)cc2)ccn1 [Sorafenib] + CC(C)C[C@H](NC(=O)[C@H](Cc1ccccc1)NC(=O)c1cnccn1)B(O)O [Bortezomib] (partner 0.002 µM)
Summary of the method: as §1

[4] = compound: CNC(=O)c1cc(Oc2ccc(NC(=O)Nc3ccc(Cl)c(C(F)(F)F)c3)cc2)ccn1 [Sorafenib] + Nc1nc2[nH]cc(CCc3ccc(C(=O)N[C@@H](CCC(=O)O)C(=O)O)cc3)c2c(=O)[nH]1 [Pemetrexed] (partner 0.2 µM)
Summary of the method: as §1

[5] = compound: CNC(=O)c1cc(Oc2ccc(NC(=O)Nc3ccc(Cl)c(C(F)(F)F)c3)cc2)ccn1 [Sorafenib] + N=C(N)NC(=N)NCCc1ccccc1 [Phenformin] (partner 250 µM)
Summary of the method: as §1

Cell Line LU99A has a relative viability ([1]; first compound 0.08 µM) of 0.58, a relative viability ([1]; first compound 0.253 µM) of 0.435 and a relative viability ([1]; first compound 2.53 µM) of 0.468. For the same cell line, the relative viability ([1]; first compound 8 µM) was 0.453, the relative viability ([2]; first compound 0.08 µM) was 0.431 and the relative viability ([2]; first compound 0.253 µM) was 0.445. It also gave a relative viability ([2]; first compound 2.53 µM) of 0.39, a relative viability ([2]; first compound 8 µM) of 0.393 and a relative viability ([3]; first compound 0.08 µM) of 1.21. For the same cell line, the relative viability ([3]; first compound 0.253 µM) was 1.12, the relative viability ([3]; first compound 2.53 µM) was 1.06 and the relative viability ([3]; first compound 8 µM) was 0.714. It also gave a relative viability ([4]; first compound 0.08 µM) of 0.195, a relative viability ([4]; first compound 0.253 µM) of 0.166 and a relative viability ([4]; first compound 2.53 µM) of 0.193. The relative viability ([4]; first compound 8 µM) was 0.138, the relative viability ([5]; first compound 0.08 µM) was 0.978 and the relative viability ([5]; first compound 0.253 µM) was 0.864. It also gave a relative viability ([5]; first compound 2.53 µM) of 0.748 and a relative viability ([5]; first compound 8 µM) of 0.408.
For LXF-289, the relative viability ([1]; first compound 0.08 µM) was 1.09, the relative viability ([1]; first compound 0.253 µM) was 1.04 and the relative viability ([1]; first compound 2.53 µM) was 1.05. For the same cell line, the relative viability ([1]; first compound 8 µM) was 1.02, the relative viability ([2]; first compound 0.08 µM) was 0.612 and the relative viability ([2]; first compound 0.253 µM) was 0.618. It also gave a relative viability ([2]; first compound 2.53 µM) of 0.74, a relative viability ([2]; first compound 8 µM) of 0.616 and a relative viability ([3]; first compound 0.08 µM) of 0.98. For the same cell line, the relative viability ([3]; first compound 0.253 µM) was 0.997, the relative viability ([3]; first compound 2.53 µM) was 1.03 and the relative viability ([3]; first compound 8 µM) was 0.926. For the same cell line, the relative viability ([4]; first compound 0.08 µM) was 0.886, the relative viability ([4]; first compound 0.253 µM) was 0.782 and the relative viability ([4]; first compound 2.53 µM) was 0.932. The relative viability ([4]; first compound 8 µM) was 0.787, the relative viability ([5]; first compound 0.08 µM) was 0.553 and the relative viability ([5]; first compound 0.253 µM) was 0.513. The relative viability ([5]; first compound 2.53 µM) was 0.541 and the relative viability ([5]; first compound 8 µM) was 0.476.
NCI-H23 was tested, and the relative viability ([1]; first compound 0.08 µM) was 0.74, the relative viability ([1]; first compound 0.253 µM) was 0.632 and the relative viability ([1]; first compound 2.53 µM) was 0.745. The relative viability ([1]; first compound 8 µM) was 0.498, the relative viability ([2]; first compound 0.08 µM) was 0.522 and the relative viability ([2]; first compound 0.253 µM) was 0.503. For the same cell line, the relative viability ([2]; first compound 2.53 µM) was 0.514, the relative viability ([2]; first compound 8 µM) was 0.389 and the relative viability ([3]; first compound 0.08 µM) was 0.97. It also gave a relative viability ([3]; first compound 0.253 µM) of 0.89, a relative viability ([3]; first compound 2.53 µM) of 0.804 and a relative viability ([3]; first compound 8 µM) of 0.861. The relative viability ([4]; first compound 0.08 µM) was 0.764, the relative viability ([4]; first compound 0.253 µM) was 0.609 and the relative viability ([4]; first compound 2.53 µM) was 0.716. It also gave a relative viability ([4]; first compound 8 µM) of 0.421, a relative viability ([5]; first compound 0.08 µM) of 0.829 and a relative viability ([5]; first compound 2.53 µM) of 0.726. The relative viability ([5]; first compound 8 µM) was 0.74.
With NCI-H322M the relative viability ([1]; first compound 0.08 µM) was 0.815, the relative viability ([1]; first compound 0.253 µM) was 0.916 and the relative viability ([1]; first compound 2.53 µM) was 0.877. The relative viability ([1]; first compound 8 µM) was 0.84, the relative viability ([2]; first compound 0.08 µM) was 0.524 and the relative viability ([2]; first compound 0.253 µM) was 0.589. For the same cell line, the relative viability ([2]; first compound 2.53 µM) was 0.525, the relative viability ([2]; first compound 8 µM) was 0.63 and the relative viability ([3]; first compound 0.08 µM) was 1.3. The relative viability ([3]; first compound 0.253 µM) was 1.18, the relative viability ([3]; first compound 8 µM) was 1.55 and the relative viability ([4]; first compound 0.08 µM) was 0.728. For the same cell line, the relative viability ([4]; first compound 0.253 µM) was 0.618, the relative viability ([4]; first compound 2.53 µM) was 0.739 and the relative viability ([4]; first compound 8 µM) was 0.763. The relative viability ([5]; first compound 0.08 µM) was 0.813, the relative viability ([5]; first compound 0.253 µM) was 0.67 and the relative viability ([5]; first compound 2.53 µM) was 0.807. The relative viability ([5]; first compound 8 µM) was 0.795.
In the case of NCI-H441, the relative viability ([1]; first compound 0.08 µM) is reported as 0.683, the relative viability ([1]; first compound 0.253 µM) is reported as 0.522 and the relative viability ([1]; first compound 2.53 µM) is reported as 0.5. For the same cell line, the relative viability ([1]; first compound 8 µM) was 0.538, the relative viability ([2]; first compound 0.08 µM) was 0.222 and the relative viability ([2]; first compound 0.253 µM) was 0.245. For the same cell line, the relative viability ([2]; first compound 2.53 µM) was 0.252, the relative viability ([2]; first compound 8 µM) was 0.164 and the relative viability ([3]; first compound 0.08 µM) was 0.489. It also gave a relative viability ([3]; first compound 0.253 µM) of 0.433, a relative viability ([3]; first compound 2.53 µM) of 0.277 and a relative viability ([3]; first compound 8 µM) of 0.219. For the same cell line, the relative viability ([4]; first compound 0.08 µM) was 0.283, the relative viability ([4]; first compound 0.253 µM) was 0.234 and the relative viability ([4]; first compound 2.53 µM) was 0.257. It also gave a relative viability ([4]; first compound 8 µM) of 0.227, a relative viability ([5]; first compound 0.08 µM) of 0.976 and a relative viability ([5]; first compound 2.53 µM) of 0.745. It also gave a relative viability ([5]; first compound 8 µM) of 0.412.
In the case of NCI-H460, the relative viability ([1]; first compound 0.08 µM) is reported as 0.594, the relative viability ([1]; first compound 0.253 µM) is reported as 0.643 and the relative viability ([1]; first compound 2.53 µM) is reported as 0.566. For the same cell line, the relative viability ([1]; first compound 8 µM) was 0.103, the relative viability ([2]; first compound 0.08 µM) was 0.176 and the relative viability ([2]; first compound 0.253 µM) was 0.118. It also gave a relative viability ([2]; first compound 2.53 µM) of 0.136, a relative viability ([2]; first compound 8 µM) of 0.137 and a relative viability ([3]; first compound 0.08 µM) of 1.01. It also gave a relative viability ([3]; first compound 0.253 µM) of 1.02, a relative viability ([3]; first compound 2.53 µM) of 0.972 and a relative viability ([4]; first compound 0.08 µM) of 0.0604. For the same cell line, the relative viability ([4]; first compound 0.253 µM) was 0.0653, the relative viability ([4]; first compound 2.53 µM) was 0.0731 and the relative viability ([4]; first compound 8 µM) was 0.0582. For the same cell line, the relative viability ([5]; first compound 0.08 µM) was 0.528, the relative viability ([5]; first compound 0.253 µM) was 0.495 and the relative viability ([5]; first compound 2.53 µM) was 0.462. It also gave a relative viability ([5]; first compound 8 µM) of 0.046.
With NCI-H520 the relative viability ([1]; first compound 0.08 µM) was 0.963, the relative viability ([1]; first compound 0.253 µM) was 0.89 and the relative viability ([1]; first compound 2.53 µM) was 0.902. It also gave a relative viability ([1]; first compound 8 µM) of 0.526, a relative viability ([2]; first compound 0.08 µM) of 0.192 and a relative viability ([2]; first compound 0.253 µM) of 0.208. For the same cell line, the relative viability ([2]; first compound 2.53 µM) was 0.225, the relative viability ([2]; first compound 8 µM) was 0.172 and the relative viability ([3]; first compound 0.08 µM) was 0.828. The relative viability ([3]; first compound 0.253 µM) was 0.665, the relative viability ([3]; first compound 2.53 µM) was 0.599 and the relative viability ([3]; first compound 8 µM) was 0.232. It also gave a relative viability ([4]; first compound 0.08 µM) of 0.731, a relative viability ([4]; first compound 0.253 µM) of 0.781 and a relative viability ([4]; first compound 2.53 µM) of 0.58. It also gave a relative viability ([4]; first compound 8 µM) of 0.199, a relative viability ([5]; first compound 0.08 µM) of 0.673 and a relative viability ([5]; first compound 0.253 µM) of 0.316. It also gave a relative viability ([5]; first compound 2.53 µM) of 0.574 and a relative viability ([5]; first compound 8 µM) of 0.253.
Work on NCI-H647 yielded a relative viability ([1]; first compound 0.08 µM) of 1.1, a relative viability ([1]; first compound 2.53 µM) of 0.872 and a relative viability ([2]; first compound 0.08 µM) of 0.373. The relative viability ([2]; first compound 0.253 µM) was 0.316, the relative viability ([2]; first compound 2.53 µM) was 0.284 and the relative viability ([2]; first compound 8 µM) was 0.082. For the same cell line, the relative viability ([3]; first compound 0.08 µM) was 1.17, the relative viability ([3]; first compound 0.253 µM) was 0.829 and the relative viability ([3]; first compound 2.53 µM) was 0.745. For the same cell line, the relative viability ([3]; first compound 8 µM) was 0.39, the relative viability ([4]; first compound 0.08 µM) was 0.171 and the relative viability ([4]; first compound 0.253 µM) was 0.141. For the same cell line, the relative viability ([4]; first compound 2.53 µM) was 0.126, the relative viability ([4]; first compound 8 µM) was 0.0896 and the relative viability ([5]; first compound 0.08 µM) was 0.636. It also gave a relative viability ([5]; first compound 0.253 µM) of 0.495, a relative viability ([5]; first compound 2.53 µM) of 0.454 and a relative viability ([5]; first compound 8 µM) of 0.198.
